From article PMC11672724, “Antiparasitic Activities of Acyl Hydrazones from Cinnamaldehydes and Structurally Related Fragrances” (Antibiotics, 2024)

Assays:
[1] = system: T. gondii RH strain tachyzoites; assay: Toxoplasma gondii cells drug testing assay (infection index in Vero cells, 72 h); assay type: cell-based; settings: for IC50: Toxoplasma gondii, Vero, IC50 ± SD, three independent experiments, 72 h; for SI = selectivity index (Vero/T. gondii): ratio IC50 Vero / IC50 T. gondii
Description: Cells of the Vero cell line (ATCC® CCL81™, Manassas, VA, USA) were used to cultivate T. gondii RH strain tachyzoites. Vero cells were maintained in complete RPMI 1640 medium (Thermo Fisher Scientific, Waltham, MA, USA). For cell cultivation, 96-well plates were prepared with 5 × 10^3 cells per well in 200 μL of RPMI 1640 medium, then incubated at 37 °C and 5% CO2 for 24 h. The medium was then removed, and cells were washed with phosphate-buffered saline (PBS). Next, RPMI 1640 medium with 2% FBS and parasites at a 5:1 parasite-to-cell ratio were added. After a 5 h incubation at 37 °C and 5% CO2, cells were washed with PBS and subjected to further treatments. […] After incubation at 37 °C and 5% CO2 for 72 h, cells were washed with PBS, fixed in 10% formalin, and stained with 1% toluidine blue. An inverted photomicroscope was used to assess cell infection and to determine the infection index (number of infected cells out of 200 counted cells). The inhibition percentage was calculated as follows:Inhibition (%) = [(I Control − I Experimental)/I Control] × 100 where “I Control” represents the infection index of untreated cells, and “I Experimental” represents the infection index of cells treated with test compounds. The effects of the compounds on parasite growth are expressed as IC50 values derived from three independent experiments.

L. major amastigotes = assay: Leishmania major amastigotes in peritoneal macrophages (percentage of infected macrophages, 72 h); assay type: cell-based; settings: Macrophage, IC50 ± SD
Description: (§1) Promastigotes of L. major were obtained from a patient (February 2016) and cultured at 26 °C in Schneider’s Drosophila medium (Invitrogen, Carlsbad, CA, USA) supplemented with 10% heat-inactivated fetal bovine serum (FBS, Invitrogen, USA) and antibiotics, with weekly transfers in a tissue culture flask. Promastigotes were cryopreserved in liquid nitrogen at a concentration of 3 × 10^6 parasites/mL. Virulent L. major parasites were maintained by serial passage in female BALB/c mice, achieved by injecting hind footpads with 1 × 10^6 stationary-phase promastigotes. Amastigotes were isolated from the mice after 8 weeks, then converted to promastigotes by cultivation at 26 °C in Schneider’s medium containing 10% FBS and antibiotics. Amastigote-derived promastigotes, which underwent several in vitro passages, were used for the infection studies. BALB/c mice (both male and female) were provided by the Pharmaceutical College, King Saud University, Kingdom of Saudi Arabia, and housed in specific pathogen-free conditions following the ethical guidelines of the Qassim University Research Ethics Committee (permission number: 20-03-20).
Activity against amastigotes in macrophages was evaluated using peritoneal macrophages, which were harvested from 6–8-week-old BALB/c mice of different sex, and plated at 5 × 10^4 cells/well in 96-well plates containing phenol-red-free RPMI 1640 medium with 10% FBS. After 4 h at 37 °C and 5% CO2 to promote adhesion, cells were washed with PBS, and 200 μL of an L. major promastigote solution (10 promastigotes per macrophage) was added. Plates were incubated for 24 h at 37 °C in a 5% CO2 environment to allow infection and amastigote differentiation. Infected cells were then washed with PBS and overlaid with RPMI 1640 medium containing the test compounds at the same concentrations as applied for the experiments with promastigotes, followed by incubation at 37 °C and 5% CO2 for 72 h. […] IC50 values were calculated from three independent experiments.

Vero monkey kidney cells = assay: Vero cell cytotoxicity (MTT assay, 72 h); assay type: cell-based; settings: Primates, IC50 ± SD
Description: To assess the test compounds’ cytotoxicity, MTT assays were performed. The Vero cells and macrophages were cultivated for 24 h at 37 °C in RPMI 1640 media with 10% FBS and 5% CO2 in 96-well plates (5 × 10^3 cells/well/200 μL). Following a washing step with PBS, the cells were treated with test compounds at different concentrations (50, 25, 12.5, 6.25, 3.13, 1.65, and 0.75 μg /mL) in 10% FBS medium for 72 h. Negative control cells were only given media with 2% FBS and 1% DMSO. The cells were cultured for 4 h after the supernatant was disposed of, and 50 μL of RPMI 1640 media containing 14 μL MTT (5 mg/mL) was added. After removing the supernatant once again, 150 μL of DMSO was added. IC50 values were determined from three independent experiments.

macrophages = assay: Macrophage cytotoxicity (MTT assay, 72 h); assay type: cell-based, BALB/c mice; settings: Mus musculus, IC50 ± SD
Description: Plates were incubated for 24 h at 37 °C in a 5% CO2 environment to allow infection and amastigote differentiation. Infected cells were then washed with PBS and overlaid with RPMI 1640 medium containing the test compounds at the same concentrations as applied for the experiments with promastigotes, followed by incubation at 37 °C and 5% CO2 for 72 h. […] The percentage of infected macrophages was determined microscopically after fixation, Giemsa staining, and medium removal. IC50 values were calculated from three independent experiments. To assess the test compounds’ cytotoxicity, MTT assays were performed. […] Negative control cells were only given media with 2% FBS and 1% DMSO. The cells were cultured for 4 h after the supernatant was disposed of, and 50 μL of RPMI 1640 media containing 14 μL MTT (5 mg/mL) was added. After removing the supernatant once again, 150 μL of DMSO was added. IC50 values were determined from three independent experiments.

L. major promastigotes = assay: Leishmania major promastigote assay (MTT, 72 h); assay type: cell-based
Description: as §1
L. major promastigotes in the logarithmic phase were cultured in phenol-red-free RPMI 1640 medium (Invitrogen, USA) with 10% FBS in 96-well plates at 10^6 cells/mL (200 μL/well, counted with a hemocytometer). Test compounds were added at final concentrations of 50, 25, 12.5, 6.25, 3.13, 1.65, and 0.75 μg/mL. […] After incubation at 26 °C for 72 h, viable promastigotes were counted using an MTT colorimetric assay. The formed formazan was dissolved in a detergent and the absorbance was measured at 570 nm using an ELISA reader. IC50 values were derived from three independent experiments.

[2] = Leishmania major, 72 h, IC50 ± SD, MTT
[3] = ratio IC50 macrophages / IC50 promastigotes
[4] = verbal statement in text on the L. major experiments

Row | SMILES | activity against T. gondii (in words) [1] | IC50 [1] [µM] | SI = selectivity index (Vero/T. gondii) [1] | IC50 (L. major amastigotes) [µM] | IC50 (Vero monkey kidney cells) [µM] | IC50 (macrophages) [µM] | IC50 (L. major promastigotes; [2]) [µM] | IC50 (L. major promastigotes; Leishmania major; IC50 ± SD, MTT, 72 h) [µM] | SI (promastigotes) = selectivity index (macrophages/L. major promastigotes) (L. major promastigotes; [3]) | IC50 (L. major promastigotes; IC50 ± SD, MTT, 72 h) [µM] | activity against L. major promastigotes (in words) (L. major promastigotes; [4])
1 | CN(C)c1ccc(/C=C/C=N/NC(=O)c2ccccc2O)cc1 [Compound 2d, (E)-N′-(4-Dimethylaminocinnamylidene)-2-hydroxybenzoylhydrazide] | reasonable activity | 3.9 ± 0.5 | 5.7 | > 42.7 | 22 ± 3 | > 42.7 | > 42.7 | – | – | – | –
2 | CN(C)c1ccc(/C=C/C=N/NC(=O)c2cc3ccccc3cc2O)cc1 [Compound 2b] | – | 23.4 ± 3.9 | 1.0 | > 36.7 | 24.2 ± 2.7 | > 36.7 | > 36.7 | – | – | – | –
3 | O=C/C=C/c1ccccc1 [Cinnamaldehyde, (2E)-3-phenylprop-2-enal] | inactive | > 151 | – | > 151 | > 151 | > 151 | – | > 151 | – | – | –
4 | CN(C)c1ccc(/C=C/C=N/NC(=O)c2ccncc2)cc1 [Compound 2m] | – | 31.6 ± 6.2 | 1.3 | > 44.8 | 41.5 ± 7.2 | > 44.8 | > 44.8 | – | – | – | –
5 | O=C(N/N=C/C=C/c1ccccc1)c1ccncc1 [Compound 2l] | – | 52.1 ± 8.3 | 0.99 | > 52.5 | 51.3 ± 7.8 | > 52.5 | 51.3 ± 9.3 | – | >1.0 | – | –
6 | CC(C)c1cccc(C(C)C/C=N/NC(=O)c2cccc(Cl)c2)c1 (stereo not drawn) [Compound 4f, N′-3-(3-Isopropylphenyl)butanylidene-3-chlorobenzoylhydrazide] | – | 47.5 ± 7.3 | 1.2 | > 58.3 | 57.9 ± 11 | > 58.3 | < 30 | – | >2.1 | 27.9 ± 4.2 | –
7 | CC(C)c1cccc(C(C)CC=NNC(=O)c2cc3ccccc3cc2O)c1 (stereo not drawn) [Compound 4a, N′-3-(3-Isopropylphenyl)butanylidene-3-hydroxy-2-naphthoic hydrazide] | – | 14.4 ± 2.1 | 2.8 | > 53.4 | 39.6 ± 4.8 | > 53.4 | < 10 | – | – | 9.6 ± 2.4 | moderate activity
8 | CC(C)c1cccc(C(C)C/C=N/NC(=O)c2ccncc2)c1 (stereo not drawn) [Compound 4g, N′-3-(3-Isopropylphenyl)butanylidene-isonicotinoylhydrazide] | – | > 64.6 | – | > 64.6 | > 64.6 | > 64.6 | 54.6 ± 9 | – | >1.2 | – | –
9 | O=C(N/N=C/C=C/c1ccccc1)c1ccccc1F [Compound 2g] | – | 69.4 ± 10 | – | > 74.6 | > 74.6 | > 74.6 | > 74.6 | – | – | – | –
10 | CC(C)c1cccc(C(C)C/C=N/NC(=O)c2ccccc2F)c1 (stereo not drawn) [Compound 4d, N′-3-(3-Isopropylphenyl)butanylidene-2-fluorobenzoylhydrazide] | – | > 61.3 | – | > 61.3 | > 61.3 | > 61.3 | > 61.3 | – | – | – | –
11 | CC(C)c1cccc(C(C)C/C=N/NC(=O)c2ccccc2O)c1 (stereo not drawn) [Compound 4b, N′-3-(3-Isopropylphenyl)butanylidene-2-hydroxybenzoylhydrazide] | – | 21 ± 3.5 | 0.92 | 45.4 ± 7.9 | 19.2 ± 2.2 | 50.3 ± 9.4 | 39.5 ± 5.9 | – | 1.3 | – | –
12 | CC(C)Cc1ccc(CC(C)/C=N/NC(=O)c2cc3ccccc3cc2O)cc1 (stereo not drawn) [Compound 3a, N′-2-Methyl-3-[4-(2-methylpropyl)phenyl]propanylidene-3-hydroxy-2-naphthoic hydrazide] | – | 46.9 ± 8.4 | 0.88 | > 51.5 | 41.3 ± 6.9 | > 51.5 | > 51.5 | – | – | – | –
13 | CC(C)Cc1ccc(CC(C)/C=N/NC(=O)c2cccc(F)c2)cc1 (stereo not drawn) [Compound 3e, N′-2-Methyl-3-[4-(2-methylpropyl)phenyl]propanylidene-3-fluorobenzoylhydrazide] | – | 45.3 ± 6.9 | 1.2 | > 58.8 | 53.5 ± 8.5 | > 58.8 | > 58.8 | – | – | – | –
14 | O=C(N/N=C/C=C/c1ccccc1)c1cc2ccccc2cc1O [Compound 2a] | – | 0.63 ± 0.08 | 11.5 | > 41.7 | 7.3 ± 0.9 | > 41.7 | 16.8 ± 2.8 | – | >2.5 | – | moderate activity
15 | C(=C\c1ccccc1)/C=N/Nc1ccccc1 [CPH, Cinnamaldehyde phenyl hydrazone, reference compound] | – | 12.9 ± 2.1 | 1.8 | – | 23.6 ± 3.9 | 78.4 ± 12.2 | 83.7 ± 13.6 | – | 0.94 | – | –
16 | O=C(N/N=C/C=C/c1ccccc1)c1ccccc1O [Compound 2c] | – | 1.1 ± 0.2 | 17.3 | > 49.6 | 19.5 ± 2.6 | 43.6 ± 8.6 | 47.7 ± 6.5 | – | 0.91 | – | –
17 | CC(C)Cc1ccc(CC(C)C=O)cc1 (stereo not drawn) [Silvial^TM, 2-methyl-3-[4-(2-methylpropyl)phenyl]propanal, reference compound] | – | 90.1 ± 15.2 | – | > 97.9 | > 97.9 | > 97.9 | > 97.9 | – | – | – | –
18 | CC(C)c1cccc(C(C)CC=O)c1 (stereo not drawn) [Florhydral^TM, 3-(3-isopropylphenyl)butanal, reference compound] | – | > 105 | – | > 105 | 99.1 ± 18.4 | > 105 | > 105 | – | – | – | –
